Assay results from patent publication EP3666765A1, “CHROMENIC PHYTOCANNABINOIDS, THEIR SYNTHESIS AND USE IN TREATMENT OR PREVENTION OF DISEASE” (Emerald Health Biotechnology España,S.L.U., priority 2018, dated 2020).

These molecules were tested against T1, mono-acyl glycerol lipase (MAGL) (Homo sapiens, UniProt Q99685) (assay: In vitro inhibition of mono-acyl glycerol lipase (Monoacylglycerol Lipase Inhibitor Screening Assay Kit, Cayman Chemical; colorimetric)). Details: human recombinant enzyme; 5 min pre-incubation at room temperature (20 °C); substrate 4-nitrophenylacetate (236 µM), 30 min; absorbance at 412 nm; read-out: IC50 against MAGL.
T1 construct: purchased Cayman Chemical
T1 sequence (Q99685 1-303): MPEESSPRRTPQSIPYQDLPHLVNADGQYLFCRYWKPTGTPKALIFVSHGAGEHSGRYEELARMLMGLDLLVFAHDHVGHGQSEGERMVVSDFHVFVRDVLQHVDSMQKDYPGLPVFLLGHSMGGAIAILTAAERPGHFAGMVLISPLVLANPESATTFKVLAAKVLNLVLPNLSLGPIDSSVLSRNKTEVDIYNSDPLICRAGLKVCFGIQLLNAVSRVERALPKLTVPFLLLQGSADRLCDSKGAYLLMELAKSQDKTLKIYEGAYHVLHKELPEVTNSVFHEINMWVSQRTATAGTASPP
Format: biochemical
Procedure: The ability of the compounds of the present invention to inhibit mono-acyl glycerol lipase (MAGL) was estimated using their IC50 value. MALG inhibition was measured using the Monoacylglycerol Lipase Inhibitor Screening Assay Kit (Cayman Chemical, USA). Briefly, in 96-well plate, samples and human recombinant enzyme were incubated for five minutes at room temperature (20 °C). After that, an ethanolic solution of 4-nitrophenylacetate (236 µM), as colorimetric substrate, was added to the wells and plates were incubated for 30 minutes at room temperature. Finally, absorbance was measured at 412 nm. JZL195 {(4-nitrophenyl)-4-[(3-phenoxyphenyl)methyl]piperazine-1-carboxylate, 5 µM} was used as a positive control. Background obtained was subtracted in each experimental value and the percentage of inhibition was established with the formula (Absorbance 100% Activity - Absorbance of the sample)/Absorbance 100% Activity. Table 1: MAGL inhibition (IC50) for compounds of the invention

| SMILES | IC50 [µM] |
| --- | --- |
| CCCCCC1=CC(=O)C2=C(OC(C)(C)C=C2)C1=O [(B), 2,2-dimethyl-7-pentyl-chromene-5,8-dione] | 4.5 |
| CCCC1=CC(=O)C2=C(OC(C)(CCC=C(C)C)C=C2)C1=O (stereo not drawn) [(C), 2-methyl-2-(4-methylpent-3-enyl)-7-propyl-chromene-5,8-dione] | 6.64 |
| CCCCCC1=CC(=O)C2=C(OC(C)(CCC=C(C)C)C=C2)C1=O (stereo not drawn) [(A), 2-methyl-2-(4-methylpent-3-enyl)-7-pentyl-chromene-5,8-dione] | 4.44 |
